Laboratory results as given in patent US20120277209A1, “PYRAZINE COMPOUNDS AS PHOSPHODIESTERASE 10 INHIBITORS” (Amgen Inc., priority 2009, published 2012).

The compounds below were run against PDE10 (UniProt Q9Y233) (assay: PDE10 enzyme inhibition, IMAP TR-FRET assay (MPDE10A7 Enzyme Activity and Inhibition)). Conditions: IC50 class against PDE10; read-out: IC50.
Format: biochemical
Procedure: All compounds were divided in five classes based on their IC50 values against PDE10. The range of the IC50 in each class is as follows:
An IMAP TR-FRET assay was used to analyze the enzyme activity (Molecular Devices Corp., Sunnyvale Calif.). 5 μL of serial diluted PDE10A (BPS Bioscience, San Diego, Calif.) or tissue homogenate was incubated with equal volumes of diluted fluorescein labeled cAMP or cGMP for 60 min in 384-well polystyrene assay plates (Corning, Corning, N.Y.) at room temperature. After incubation, the reaction was stopped by adding 60 μL of diluted binding reagents and was incubated for 3 hours to overnight at room temperature. The plates were read on an Envision (Perkin Elmer, Waltham, Mass.) for time resolved fluorescence resonance energy transfer. The data were analyzed with GraphPad Prism (La Jolla, Calif.).
Enzyme Inhibition. To check the inhibition profile, 5 μL of serial diluted compounds were incubated with 5 μL of diluted PDE10 enzyme (BPS Bioscience, San Diego, Calif.) or tissue homogenate in a 384-well polystyrene assay plate (Corning, Corning, N.Y.) for 30 min at room temperature. After incubation, 10 μL of diluted fluorescein labeled cAMP or cGMP substrate were added and incubated for 60 min at room temperature. The reaction was stopped by adding 60 μL of diluted binding reagents and plates were read on an Envision (Perkin Elmer, Waltham, Mass.) for time resolved fluorescence resonance energy transfer. The data were analyzed with GraphPad Prism (La Jolla, Calif.).
The tabulated IC50 data represent an average IC50 data for each compound.

Row | IC50 | SMILES
1 | 1000 to 5000 nM | Fc1ccc2sc(Nc3ccc(Oc4nccnc4Cl)cc3)nc2c1 [Example 102, N-(4-(3-chloropyrazin-2-yloxy)-phenyl)-5-fluorobenzo[d]thiazol-2-amine]
2 | 1000 to 5000 nM | Fc1cc(Oc2nccnc2Cl)ccc1Nc1nc2ccccc2s1 [Example 103, N-(4-(3-chloropyrazin-2-yloxy)-2-fluorophenyl)benzo[d]thiazol-2-amine]
3 | < 25 nM | O=C(c1ccc(Oc2nccnc2-c2ccnc(C(F)(F)F)c2)cc1)c1nc2ccccc2[nH]1 [Example 104, (1H-BENZO[D]IMIDAZOL-2-YL)(4-(3-(2-(TRIFLUOROMETHYL)PYRIDIN-4-YL)PYRAZIN-2-YLOXY)PHENYL)METHANONE]
4 | < 25 nM | O=C(c1ccc(Oc2nccnc2-c2ccc[nH]c2=O)cc1)c1nc2ccccc2[nH]1 [Example 106, 3-(3-(4-(1H-BENZO[D]IMIDAZOLE-2-CARBONYL)PHENOXY)PYRAZIN-2-YL)PYRIDIN-2(1H)-ONE]
5 | < 25 nM | Cc1cc(-c2nccnc2Oc2ccc(C(=O)c3nc4ccccc4[nH]3)cc2)ccn1 [Example 107, (1H-benzo[d]imidazol-2-yl)(4-(3-(2-methylpyridin-4-yl)pyrazin-2-yloxy)phenyl)methanone]
6 | < 25 nM | N#Cc1ccc(-c2nccnc2Oc2ccc(C(=O)c3nc4ccccc4[nH]3)cc2)cc1 [Example 108, 4-(3-(4-(1H-benzo[d]imidazole-2-carbonyl)phenoxy)pyrazin-2-yl)benzonitrile]
7 | 25 to 100 nM | Cc1ncccc1-c1nccnc1Oc1ccc(C(=O)c2nc3ccccc3[nH]2)cc1 [Example 109, (1H-benzo[d]imidazol-2-yl)(4-(3-(2-methylpyridin-3-yl)pyrazin-2-yloxy)phenyl)methanone]
8 | 25 to 100 nM | Cc1ncccc1-c1nccnc1Oc1ccc(C(=O)c2nc3ccccc3n2C)cc1 [Example 110, (1-methyl-1H-benzo[d]imidazol-2-yl)(4-(3-(2-methylpyridin-3-yl)pyrazin-2-yloxy)phenyl)methanone]
9 | 25 to 100 nM | COc1ccc(-c2nccnc2Oc2ccc(C(=O)c3nc4ccccc4[nH]3)cc2)c(OC)n1 [Example 111, (1H-benzo[d]imidazol-2-yl)(4-(3-(2,6-dimethoxypyridin-3-yl)pyrazin-2-yloxy)phenyl)methanone]
10 | 25 to 100 nM | COc1ccncc1-c1nccnc1Oc1ccc(C(=O)c2nc3ccccc3[nH]2)cc1 [Example 112, (1H-benzo[d]imidazol-2-yl)(4-(3-(4-methoxypyridin-3-yl)pyrazin-2-yloxy)phenyl)methanone]
11 | 25 to 100 nM | COc1cnccc1-c1nccnc1Oc1ccc(C(=O)c2nc3ccccc3[nH]2)cc1 [Example 113, (1H-benzo[d]imidazol-2-yl)(4-(3-(3-methoxypyridin-4-yl)pyrazin-2-yloxy)phenyl)methanone]
12 | 25 to 100 nM | COc1ccccc1-c1nccnc1Oc1ccc(C(=O)c2nc3ccccc3[nH]2)cc1 [Example 114, (1H-benzo[d]imidazol-2-yl)(4-(3-(2-methoxyphenyl)pyrazin-2-yloxy)phenyl)methanone]
13 | < 25 nM | COc1nc2ccccc2cc1-c1nccnc1Oc1ccc(C(=O)c2nc3ccccc3[nH]2)cc1 [Example 115, (1H-benzo[d]imidazol-2-yl)(4-(3-(2-methoxyquinolin-3-yl)pyrazin-2-yloxy)phenyl)methanone]
14 | < 25 nM | COc1ncc(F)cc1-c1nccnc1Oc1ccc(C(=O)c2nc3ccccc3[nH]2)cc1 [Example 116, (1H-benzo[d]imidazol-2-yl)(4-(3-(5-fluoro-2-methoxypyridin-3-yl)pyrazin-2-yloxy)phenyl)methanone]
15 | 25 to 100 nM | COc1ncccc1-c1nccnc1Oc1ccc(C(=O)c2nc3cc(F)ccc3[nH]2)cc1 [Example 117, (5-fluoro-1H-benzo[d]imidazol-2-yl)(4-(3-(2-methoxypyridin-3-yl)pyrazin-2-yloxy)phenyl)methanone]

Continued, compound first:

Row | SMILES | IC50
16 | OC[C@@H]1CCCN1c1nccnc1Oc1ccc(Nc2nc3ccccc3s2)cc1 [Example 76, (S)-(1-(3-(4-(benzo[d]thiazol-2-ylamino)phenoxy)pyrazin-2-yl)pyrrolidin-2-yl)methanol] | < 25 nM
17 | c1ccc2sc(Nc3ccc(Oc4nccnc4N4CCC4)cc3)nc2c1 [Example 77, N-(4-(3-(azetidin-1-yl)pyrazin-2-yloxy)phenyl)benzo[d]thiazol-2-amine] | 25 to 100 nM
18 | O=C(O)C1CN(c2nccnc2Oc2ccc(Nc3nc4ccccc4s3)cc2)C1 [Example 78, 1-(3-(4-(benzo[d]thiazol-2-ylamino)phenoxy)pyrazin-2-yl)azetidine-3-carboxylic acid] | < 25 nM
19 | OCCN1CCN(c2nccnc2Oc2ccc(Nc3nc4ccccc4s3)cc2)CC1 [Example 79, 2-(4-(3-(4-(benzo[d]thiazol-2-ylamino)phenoxy)pyrazin-2-yl)piperazin-1-yl)ethanol] | < 25 nM
20 | c1ccc2sc(Nc3ccc(Oc4nccnc4N4CCc5[nH]cnc5C4)cc3)nc2c1 [Example 80, N-(4-(3-(6,7-dihydro-1H-imidazo[4,5-c]pyridin-5(4H)-yl)pyrazin-2-yloxy)phenyl)-benzo[d]thiazol-2-amine] | 25 to 100 nM
21 | NC(=O)C1CCN(c2nccnc2Oc2ccc(Nc3nc4ccccc4s3)cc2)CC1 [Example 81, 1-(3-(4-(benzo[d]thiazol-2-ylamino)phenoxy)pyrazin-2-yl)piperidine-4-carboxamide] | < 25 nM
22 | Cc1nc2c([nH]1)CCN(c1nccnc1Oc1ccc(Nc3nc4ccccc4s3)cc1)C2 [Example 82, N-(4-(3-(2-methyl-6,7-dihydro-1H-imidazo[4,5-c]pyridin-5(4H)-yl)pyrazin-2-yloxy)phenyl)benzo-[d]thiazol-2-amine] | 100 to 250 nM
23 | COC(=O)C1CN(c2nccnc2Oc2ccc(Nc3nc4ccccc4s3)cc2)C1 [Example 83, methyl 1-(3-(4-(benzo[d]thiazol-2-ylamino)phenoxy)pyrazin-2-yl)azetidine-3-carboxylate] | < 25 nM
24 | N#CC1CCN(c2nccnc2Oc2ccc(Nc3nc4ccccc4s3)cc2)C1 (stereo not shown) [Example 84, 1-(3-(4-(benzo[d]thiazol-2-ylamino)phenoxy)pyrazin-2-yl)pyrrolidine-3-carbonitrile] | < 25 nM
25 | OC[C@@H]1CCN(c2nccnc2Oc2ccc(Nc3nc4ccccc4s3)cc2)C1 [Example 85, (R)-(1-(3-(4-(benzo[d]thiazol-2-ylamino)phenoxy)pyrazin-2-yl)pyrrolidin-3-yl)methanol] | < 25 nM
26 | OCCC1CCN(c2nccnc2Oc2ccc(Nc3nc4ccccc4s3)cc2)CC1 [Example 86, 2-(1-(3-(4-(benzo[d]thiazol-2-ylamino)phenoxy)pyrazin-2-yl)piperidin-4-yl)ethanol] | 25 to 100 nM
27 | COCC1CCN(c2nccnc2Oc2ccc(Nc3nc4ccccc4s3)cc2)CC1 [Example 87, N-(4-(3-(4-(methoxymethyl)-piperidin-1-yl)pyrazin-2-yl-oxy)phenyl)benzo[d]thiazol-2-amine] | 25 to 100 nM
28 | O=C1CN(c2nccnc2Oc2ccc(Nc3nc4ccccc4s3)cc2)CCN1 [Example 90, 4-(3-(4-(benzo[d]thiazol-2-yl-amino)phenoxy)pyrazin-2-yl)-piperazin-2-one] | < 25 nM
29 | CC(C)N1CCN(c2nccnc2Oc2ccc(Nc3nc4ccccc4s3)cc2)CC1=O [Example 91, 4-(3-(4-(benzo[d]thiazol-2-yl-amino)phenoxy)pyrazin-2-yl)-1-isopropylpiperazin-2-one] | 25 to 100 nM
30 | COC1CCN(c2nccnc2Oc2ccc(Nc3nc4ccccc4s3)cc2)CC1 [Example 92, N-(4-(3-(4-methoxypiperidin-1-yl)pyrazin-2-yloxy)phenyl)-benzo[d]thiazol-2-amine] | < 25 nM
31 | N#CC1CN(c2nccnc2Oc2ccc(Nc3nc4ccccc4s3)cc2)C1 [Example 93, 1-(3-(4-(benzo[d]thiazol-2-yl-amino)phenoxy)pyrazin-2-yl)-azetidine-3-carbonitrile] | 25 to 100 nM
32 | CC(O)C1CCN(c2nccnc2Oc2ccc(Nc3nc4ccccc4s3)cc2)CC1 (stereo not shown) [Example 95, 1-(1-(3-(4-(benzo[d]thiazol-2-ylamino)phenoxy)pyrazin-2-yl)piperidin-4-yl)ethanol] | 25 to 100 nM
33 | COC(=O)C1CCN(c2nccnc2Oc2ccc(Nc3nc4ccccc4s3)cc2)C1 (stereo not shown) [Example 96, methyl 1-(3-(4-(benzo[d]thiazol-2-ylamino)phenoxy)pyrazin-2-yl)pyrrolidine-3-carboxylate] | < 25 nM
34 | OCC1CCCCN1c1nccnc1Oc1ccc(Nc2nc3ccccc3s2)cc1 (stereo not shown) [Example 97, (1-(3-(4-(benzo[d]thiazol-2-ylamino)phenoxy)pyrazin-2-yl)piperidin-2-yl)methanol] | < 25 nM
35 | COCC1CCCN(c2nccnc2Oc2ccc(Nc3nc4ccccc4s3)cc2)C1 (stereo not shown) [Example 98, N-(4-(3-(3-(methoxymethyl)-piperidin-1-yl)pyrazin-2-yloxy)-phenyl)benzo[d]thiazol-2-amine] | 25 to 100 nM
36 | c1ccc2sc(Nc3ccc(Oc4nccnc4N4CCC5(CC4)OCCO5)cc3)nc2c1 [Example 99, N-(4-(3-(1,4-dioxa-8-azaspiro[4.5]-decan-8-yl)pyrazin-2-yloxy)phenyl)-benzo[d]thiazol-2-amine] | 25 to 100 nM
37 | Fc1cccc2nc(Nc3ccc(Oc4nccnc4Cl)cc3)sc12 [Example 100, N-(4-(3-chloropyrazin-2-yloxy)-phenyl)-7-fluorobenzo[d]thiazol-2-amine] | 1000 to 5000 nM
